Measured values taken from patent US20160257697A1, “THIOPHENE-SUBSTITUTED TETRACYCLIC COMPOUNDS AND METHODS OFUSE THEREOF FOR THE TREATMENT OF VIRAL DISEASES” (priority 2013, published 2016).
Like-named read-outs stand apart in the source and are kept apart here.

Key:
Test in all cases: microbe, parasite or virus in culture
Assay type in all cases: cell-based, Hepatitis C virus (HCV)
Details in all cases: Replicon Assay A
HCV replicon 1AY93H = test system: HCV replicon 1AY93H
Summary of the method: (§1)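 HCV RNA levels were calculated from Ct values (minus intercept, divided by slope) of a Neo primer/probe standard curve, with cyclophilin quantified the same way. Cells were seeded at 2000/well and incubated with compound for 3 days in 5% serum and 0.5% DMSO.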

HCV replicon 1A = test system: HCV replicon 1A
Summary of the method: as §1

HCV replicon 2B = test system: HCV replicon 2B
Summary of the method: as §1

[1] = read-out: 1A Y93H IC50, replicon 1AY93H
[2] = read-out: 1A Y93H IC50, HCV replicon 1A Y93H
[3] = read-out: 2B IC50, HCV replicon 2B
[4] = Hepatitis C virus, read-out: 1A Y93H IC50 (nM), replicon 1AY93H
[5] = Hepatitis C virus, read-out: 2B IC50 (nM), replicon 2B
[6] = Hepatitis C virus, read-out: 1A Y93H IC50, HCV replicon 1A Y93H

Row | Compound | IC50 (HCV replicon 1AY93H; [1]) [nM] | IC50 (HCV replicon 1A; Hepatitis C virus, replicon 1A) [nM] | IC50 (HCV replicon 2B; read-out: 2B IC50, replicon 2B) [nM] | IC50 (HCV replicon 1A; replicon 1A) [nM] | other results
1 | CCc1ccc(C2Oc3cc(-c4cnc([C@@H]5CCCN5C(=O)C(NC(=O)OC)C5C[C@@H](C)O[C@@H](C)C5)[nH]4)cc(F)c3-c3cc4cc(-c5cnc([C@@H]6CCCN6C(=O)C(NC(=O)OC)C6C[C@@H](C)O[C@@H](C)C6)[nH]5)ccc4n32)s1 (single isomer, unassigned) [Compound 299] | 0.27 | 0.0017 | 0.14 |  | 
2 | COC(=O)NC(C(=O)N1CCC[C@H]1c1ncc(-c2ccc3c(c2)cc2n3C(c3ccc(C(C)C)s3)Oc3cc(-c4cnc([C@@H]5CCCN5C(=O)[C@@H](NC(=O)OC)C(C)C)[nH]4)cc(F)c3-2)[nH]1)C1CCOC(C)(C)C1 (single isomer, unassigned) [Compound 239] | 6.6 |  | 9.48 | 0.0982 | 
3 | COC(=O)NC(C(=O)N1CCC[C@H]1c1ncc(-c2ccc3c(c2)cc2n3C(c3ccc(C4CC4)s3)Oc3cc(-c4cnc([C@@H]5CCCN5C(=O)[C@@H](NC(=O)OC)C(C)C)[nH]4)cc(F)c3-2)[nH]1)C1CCO[C@@H](C)C1 (single isomer, unassigned) [Compound 355] | 1.75 |  | 2.8 | 0.0019 | 
4 | COC(=O)NC(C(=O)N1CCC[C@H]1c1ncc(-c2ccc3c(c2)cc2n3C(c3ccc(C(C)C)s3)Oc3cc(-c4cnc([C@@H]5CCCN5C(=O)[C@@H](NC(=O)OC)C(C)C)[nH]4)cc(F)c3-2)[nH]1)C1CCOC(C)(C)C1 (single isomer, unassigned) [Compound 243] | 0.87 |  | 6.81 | 0.0015 | 
5 | COC(=O)NC(C(=O)N1CCC[C@H]1c1ncc(-c2ccc3c(c2)cc2n3C(c3ccc(C4CC4)s3)Oc3cc(-c4cnc([C@@H]5CCCN5C(=O)[C@@H](NC(=O)OC)C(C)C)[nH]4)cc(F)c3-2)[nH]1)C1CCOC(C)(C)C1 (single isomer, unassigned) [Compound 220] | 0.52 |  | 0.93 | 0.0021 | 
6 | CCc1ccc(C2Oc3cc(-c4cnc([C@@H]5CCCN5C(=O)C(NC(=O)OC)C5CCOC(C)(C)C5)[nH]4)cc(F)c3-c3cc4cc(-c5cnc([C@@H]6CCCN6C(=O)C(NC(=O)OC)C6CCOC(C)(C)C6)[nH]5)ccc4n32)s1 (single isomer, unassigned) [Compound 297] | 8.37 |  | 6.68 | 0.0889 | 
7 | COC(=O)N[C@H](C(=O)N1CCC[C@H]1c1nc(-c2cc(F)c3c(c2)OC(c2ccc(C4CC4)s2)n2c-3cc3cc(-c4c[nH]c([C@@H]5C[C@H]6C[C@H]6N5C(=O)[C@@H](NC(=O)OC)C(C)C)n4)ccc32)c[nH]1)C(C)C (single isomer, unassigned) [Compound 720] |  |  |  |  | IC50 (HCV replicon 1AY93H; [2]): 0.52 nM; IC50 (HCV replicon 1A; HCV replicon 1A): 0.0019 nM; IC50 (HCV replicon 2B; [3]): 3.99 nM
8 | COC(=O)N[C@H](C(=O)N1CCC[C@H]1c1ncc(-c2ccc3c(c2)OC(c2ccc(C4CC4)s2)n2c-3c(F)c3cc(-c4cnc([C@@H]5C[C@H]6C[C@H]6N5C(=O)[C@@H](NC(=O)OC)C(C)C)[nH]4)ccc32)[nH]1)C(C)C (single isomer, unassigned) [Compound 612] |  |  |  |  | IC50 (HCV replicon 1AY93H; [2]): 0.469 nM; IC50 (HCV replicon 1A; HCV replicon 1A): 0.0016 nM; IC50 (HCV replicon 2B; [3]): 2.21 nM
9 | CCc1ccc(C2Oc3cc(-c4cnc([C@@H]5CCCN5C(=O)[C@@H](NC(=O)OC)C(C)C)[nH]4)cc(F)c3-c3cc4cc(-c5cnc([C@@H]6C[C@H]7C[C@H]7N6C(=O)C(NC(=O)OC)C6CCOC(C)(C)C6)[nH]5)ccc4n32)s1 (single isomer, unassigned) [Compound 199] | 26.5 |  | 33.3 | 0.118 | 
10 | COC(=O)N[C@H](C(=O)N1CCC[C@H]1c1ncc(-c2cc(F)c3c(c2)OC(c2ccc(C4CC4)s2)n2c-3c(F)c3cc(-c4cnc([C@@H]5CCCN5C(=O)[C@@H](NC(=O)OC)C(C)C)[nH]4)ccc32)[nH]1)C(C)C (single isomer, unassigned) [Compound 73] |  | 0.0016 |  |  | IC50 (HCV replicon 1AY93H; [4]): 2.26 nM; IC50 (HCV replicon 2B; [5]): 5.14 nM
11 | COC(=O)N[C@H](C(=O)N1CCC[C@H]1c1ncc(-c2ccc3c(c2)OC(c2ccc(C4CC4)s2)n2c-3c(C)c3cc(-c4cnc([C@@H]5CCCN5C(=O)[C@@H](NC(=O)OC)C(C)C)[nH]4)ccc32)[nH]1)C(C)C (single isomer, unassigned) [Compound 21] | 0.22 | 0.0019 | 0.26 |  | 
12 | COC(=O)N[C@H](C(=O)N1CCC[C@H]1c1ncc(-c2ccc3c(c2)OC(c2ccc(C4CC4)s2)n2c-3cc3cc(-c4cnc([C@@H]5CCCN5C(=O)[C@@H](NC(=O)OC)C5CCOCC5)[nH]4)ccc32)[nH]1)C(C)C (single isomer, unassigned) [Compound 334] | 0.159 | 0.0024 | 0.0768 |  | 
13 | COC(=O)NC(C(=O)N1CCC[C@H]1c1ncc(-c2ccc3c(c2)cc2n3C(c3ccc(C4CC4)s3)Oc3cc(-c4cnc([C@@H]5CCCN5C(=O)[C@@H](NC(=O)OC)C(C)C)[nH]4)cc(F)c3-2)[nH]1)C1CC2CCC(C1)O2 (single isomer, unassigned) [Compound 181] |  |  |  | 0.0023 | IC50 (HCV replicon 1AY93H; [4]): 0.054 nM; IC50 (HCV replicon 2B; [5]): 0.083 nM
14 | COC(=O)N[C@H](C(=O)N1CCC[C@H]1c1ncc(-c2cc(F)c3c(c2)OC(c2sccc2C2CC2)n2c-3cc3cc(-c4cnc([C@@H]5CCCN5C(=O)[C@@H](NC(=O)OC)C(C)C)[nH]4)ccc32)[nH]1)C(C)C (single isomer, unassigned) [Compound 25] |  | 0.0043 |  |  | IC50 (HCV replicon 1AY93H; [4]): 14.4 nM; IC50 (HCV replicon 2B; [5]): 15.1 nM
15 | COC(=O)NC(C(=O)N1CCC[C@H]1c1ncc(-c2cc(F)c3c(c2)OC(c2ccc(C(C)C)s2)n2c-3cc3cc(-c4cnc([C@@H]5CCCN5C(=O)[C@@H](NC(=O)OC)C(C)C)[nH]4)ccc32)[nH]1)C1CCOC(C)(C)C1 (single isomer, unassigned) [Compound 246] |  | 0.0011 |  |  | IC50 (HCV replicon 1AY93H; [4]): 0.58 nM; IC50 (HCV replicon 2B; [5]): 0.27 nM
16 | COC(=O)NC(C(=O)N1[C@@H]2C[C@@H]2C[C@H]1c1ncc(-c2ccc3c(c2)cc2n3C(c3cc4ccccc4s3)Oc3cc(-c4cnc([C@@H]5CCCN5C(=O)[C@@H](NC(=O)OC)C(C)C)[nH]4)cc(F)c3-2)[nH]1)C1C[C@@H](C)O[C@@H](C)C1 (single isomer, unassigned) [Compound 648] |  |  |  |  | IC50 (HCV replicon 1AY93H; [6]): 2.04 nM; IC50 (HCV replicon 1A; HCV replicon 1A): 0.0036 nM; IC50 (HCV replicon 2B; [3]): 1.7 nM
17 | CCc1ccc(C2Oc3cc(-c4cnc([C@@H]5CCCN5C(=O)C(NC(=O)OC)C5CCOC(C)(C)C5)[nH]4)cc(F)c3-c3cc4cc(-c5cnc([C@@H]6CCCN6C(=O)C(NC(=O)OC)C6CCOC(C)(C)C6)[nH]5)ccc4n32)s1 (single isomer, unassigned) [Compound 298] | 1.22 |  | 2.09 | 0.0784 | 
18 | COC(=O)N[C@H](C(=O)N1CCC[C@H]1c1ncc(-c2cc(F)c3c(c2)OC(c2ccc(C(C)C(F)(F)F)s2)n2c-3cc3cc(-c4cnc([C@@H]5CCCN5C(=O)[C@@H](NC(=O)OC)C(C)C)[nH]4)ccc32)[nH]1)C(C)C (single isomer, unassigned) [Compound 132] |  | 0.0032 | 6 |  | IC50 (HCV replicon 1AY93H; [4]): 4.93 nM
19 | COC(=O)NC(C(=O)N1CCC[C@H]1c1ncc(-c2ccc3c(c2)cc2n3C(c3ccc(C4CC4)s3)Oc3cc(-c4cnc([C@@H]5CCCN5C(=O)[C@@H](NC(=O)OC)C(C)C)[nH]4)cc(F)c3-2)[nH]1)C1CCO[C@H](C)C1 (single isomer, unassigned) [Compound 141] | 12.8 |  | 21.4 | 0.0584 | 
20 | COC(=O)NC(C(=O)N1CCC[C@H]1c1ncc(-c2ccc3c(c2)cc2n3C(c3ccc(C4CC4)s3)Oc3cc(-c4cnc([C@@H]5CCCN5C(=O)[C@@H](NC(=O)OC)C(C)C)[nH]4)cc(F)c3-2)[nH]1)C1CCOC(C)(C)C1 (single isomer, unassigned) [Compound 223] | 0.24 |  | 0.27 | 0.0025 | 
21 | CCc1ccc(C2Oc3cc(-c4cnc(C5CCCN5C(=O)C(NC(=O)OC)C5C[C@@H](C)O[C@@H](C)C5)[nH]4)ccc3-c3cc4c(F)c(-c5cnc([C@@H]6CCCN6C(=O)[C@@H](NC(=O)OC)C(C)C)[nH]5)ccc4n32)s1 (single isomer, unassigned) [Compound 358] | 2.62 | 0.0047 | 2.49 |  | 
22 | COC(=O)NC(C(=O)N1CCC[C@H]1c1ncc(-c2ccc3c(c2)cc2n3C(c3ccc(C(C)C)s3)Oc3cc(-c4cnc([C@@H]5CCCN5C(=O)[C@@H](NC(=O)OC)C(C)C)[nH]4)cc(F)c3-2)[nH]1)C1CCOC(C)(C)C1 (single isomer, unassigned) [Compound 237] | 0.21 |  | 0.4 | 0.0012 | 
23 | COC(=O)N[C@H](C(=O)N1CCC[C@H]1c1ncc(-c2cc(F)c3c(c2)OC(c2cc(F)c(C4CC4)s2)n2c-3cc3cc(-c4cnc([C@@H]5CCCN5C(=O)[C@@H](NC(=O)OC)C(C)C)[nH]4)ccc32)[nH]1)C(C)C (single isomer, unassigned) [Compound 71] | 1.09 | 0.0013 | 3.85 |  | 
24 | COC(=O)N[C@H](C(=O)N1CCC[C@H]1c1nc(-c2ccc3c(c2)OC(c2ccc(Cl)s2)n2c-3cc3cc(-c4c[nH]c([C@@H]5CCCN5C(=O)[C@@H](NC(=O)OC)C5CCOCC5)n4)ccc32)c[nH]1)C1CCOCC1 (mixture of isomers) [Compound 727] |  |  |  |  | IC50 (HCV replicon 1AY93H; [6]): 0.056 nM; IC50 (HCV replicon 1A; Hepatitis C virus, HCV replicon 1A): 0.024 nM; IC50 (HCV replicon 2B; Hepatitis C virus, read-out: 2B IC50, HCV replicon 2B): 0.027 nM
25 | COC(=O)N[C@H](C(=O)N1CCC[C@H]1c1ncc(-c2cc(F)c3c(c2)OC(c2sc(C4CC4)cc2F)n2c-3cc3cc(-c4cnc([C@@H]5CCCN5C(=O)[C@@H](NC(=O)OC)C(C)C)[nH]4)ccc32)[nH]1)C(C)C (single isomer, unassigned) [Compound 65] | 3 | 0.0016 | 3.6 |  | 
